The subject of experiment [1] is Wistar, adult, male, rats. Put plainly: Induction of status epilepticus by systemic pilocarpine. Particulars: pilocarpine 320 mg/Kg intraperitoneal. Type of experiment: in vivo.
In experiment [2] the test system is kainate model of epilepsy. Put plainly: Onset of spontaneous recurrent seizures in the kainate model of epilepsy.

Consider two molecules from patent publication US20030060481A1 (priority 1999, published 2003).

The structures appear in SMILES notation.

As for `CC[C@@H]1C(=O)OC[C@@H]1Cc1cncn1C` [pilocarpine], the “Latency for the onset of status epilepticus after injection” value in experiment [1] came out at 19 ± 5 min.

For the molecule `CN1[C@@H]2C[C@@H](OC(=O)[C@H](CO)c3ccccc3)C[C@H]1[C@@H]1O[C@@H]12` [scopolamine], in experiment [2], the “Effect on onset of spontaneous recurrent seizures (in words)” value was “retard or even suppress the onset of spontaneous recurrent seizures”.
